According to patent US20260124315A1, “CATALYST AUGMENTED TARGET SPECIFIC POLYPEPTIDE” (TECHNISCHE UNIVERSITAT BERLIN, priority 2022, published 2026):
Like-named read-outs stand apart in the source and are kept apart here. No end group written: not given here.

B1: NB—Pd: HER2 nanobody-HRGDH fusion complexed with Pd after incubation with Pd(OAc)2 at molar ratio 1:1 (conjugate)
VHH: QVQLQESGGGSVQAGGSLKLTCAASGYIFNSCGMGWYRQSPGRERELVSRISGDGDTWHKESVKGRFTISQDNVKKTLYLQMNSLKPEDTAVYFCAVCYNLETYWGQGTQVTVSSGGGGSHRGDHENLYFQSHHHHHH

Key:
[1] = tested on: SK-BR-3 breast cancer cells; assay: Dose-response of paclitaxel versus paclitaxel prodrug in SK-BR-3 cells; type: cell-based; conditions: Homo sapiens, semilog dose-response
Text: This vast drop of anticancer activity highlights the essential role of the C2′-OH of PTX for binding its target.

SK-BR-3 cells [2] = assay: Prodrug-into-drug conversion, extracellular, SK-BR-3; type: cell-based; conditions: for catalytic conversion of ProPTX into paclitaxel in cell culture: catalyst 1.4 μM + ProPTX 0.3 μM, SK-BR-3; for cell death: in combination with ProPTX 0.3 μM, SK-BR-3, 5 days, PrestoBlue
Protocol: Error bars: LSD from n=2. Significance was determined by one-way analysis of variance (ANOVA): ^nsP>0.05, *P<0.05.
Error bars: ±SD from n=3.
Extracellular conversion. […] The cells treated with PTX and ProPTX at 0.3 μM were used as positive and negative controls, respectively. After 5d, PrestoBlue cell viability reagent (10% v/v) was added to each well and the plate was incubated for 90 min. […] Experiments were performed in triplicates.
SK-BR-3 cells were seeded and incubated with a solution of Pd(OAc)2 or Pd-peptide (Pd-HRGDHC) in combination with either DMSO or ProPTX (0.3 μM). After 5 days, Presto blue cell viability reagent was added and fluorescence emission was detected using a multilabel plate reader.
After 5d, Presto blue cell viability reagent was added to each well and fluorescence emission was detected using a multilabel fluorescence reader.

[3] = Fluorogenic catalysis of ProRes in PBS versus serum (10% FBS in PBS); conditions: 37° C., 24 h
Protocol: (a) Catalytic deprotection of the propargylated dye (ProRes, 100 μM) occurs in the presence of either Pd(OAc)2 (Pd, 1.4 μM), or in the presence of NB-HRGDH-Pd (NB—Pd, 1.4 μM). The catalysis was performed at physiological conditions (pH 7.4, 37° C.) in PBS or in serum (10% FBS in PBS). The fluorescence measurements were normalised against the value of fluorescence after catalysis in PBS (100%) and corrected by the fluorescence of the product, Resorufin, in PBS and serum, respectively. (b) Scheme representing the catalysis of ProRes by NB—Pd in the presence of serum and the catalytic deactivation of Pd(OAc)2 by serum.
In solution. […] The mixtures were shaken at 700 rpm and 37° C. in a Thermomixer, and reactions were monitored after 24 h using a FLUOstar Omega multilabel reader (Ex/Em: 540/590 nm). […] The fluorescence measurements were normalised against the value of fluorescence after catalysis in PBS (100%) and corrected by the fluorescence of the product, Resorufin, in PBS and serum, respectively.
Pd(OAc)2 and Pd-peptide (Pd-HRGDHC) were incubated with the previously described sensor (ProRes) in PBS or in 10% FBS—PBS at 37° C. in a Thermomixer, and reactions were monitored after 24 h using a multilabel reader. Fluorescence increment was observed after catalysis. […]

SK-BR-3 cells [4] = conditions: read-out: EC50 (cell viability), SK-BR-3, day 5, PrestoBlue
Protocol: Dose-response curves of Pd (Pd(OAc)2) and Pd-peptide (HRGDHC-Pd) at different concentrations (100-1 μM) in HER2+ breast cancer cell line SK-BR-3. Cell viability was measured on day 5 using PrestoBlue reagent. Error bars: ±SD from n=3.
Cell viability was measured on day 5 using PrestoBlue reagent. Error bars: ±SD from n=3.
Cells were seeded in a 96-well plate format (at 2,000 cells per well) and incubated for 24 h before treatment. […] Untreated cells were incubated with DMSO (0.1% v/v). After 5d of incubation, cell viability was determined as described above. All conditions were normalised to the untreated cells (100%) and curves fitted using GraphPad Prism using a sigmoidal variable slope curve. Experiments were performed in triplicates.
Presto blue reagent was added to quantitatively measure viability by fluorescence detection and EC50 values were calculated by plotting dose-response curves.

[5] = Catalytic screening of metallopeptides (ProRes to resorufin fluorescence); conditions: Pd-peptides 10 μM, ProRes 100 μM, PBS, 37° C., 24 h
Protocol: Catalytic screening of metallopeptides. Metallopeptides, either mixed or as individual Pd-peptides (Pd-HRGDHC (SEQ ID NO: 6) or Pd-LLEYLKR (SEQ ID NO: 7) (10 μM) were incubated with Pd-labile off/on sensor O-propargyl-resorufin (ProRes)^2 (100 μM) in PBS (500 μL). The mixtures were shaken at 700 rpm and 37° C. in a Thermomixer and reactions were monitored after 24 h using a FLUOstar Omega multilabel reader (Ex/Em: 540/590 nm).

[6] = tested on: HER2 negative cells MCF-7; assay: Prodrug-into-drug conversion, intracellular (1 h incubation, wash), MCF-7; type: cell-based; conditions: NB—Pd 1 h, washed, then ProPTX 0.3 μM, 5 days
Protocol: Cell viability was measured on day 5 using PrestoBlue reagent. Error bars: LSD from n=3. Significance was determined by one-way analysis of variance (ANOVA): ^nsP>0.05, *P<0.05, **P<0.01, ****P<0.0001.
Intracellular conversion. SK-BR-3 and MCF-7 cells were seeded in a 96-well plate format (at 2,000 cells per well) and incubated for 24 h before treatment. Each well was then replaced with a solution of NB—Pd (20 μg/mL, 1.4 μM) in culture media and incubated for 1 h. Cells were then washed with PBS and fresh media containing either DMSO (0.1% v/v) or ProPTX (0.3 μM) was added. The cells treated with PTX and ProPTX at 0.3 μM were used as positive and negative controls, respectively. After 5d, PrestoBlue cell viability reagent (10% v/v) was added to each well and the plate was incubated for 90 min. Fluorescence emission was detected using a FLUOstar Omega multilabel reader (Ex/Em: 540/590 nm). Experiments were performed in triplicates.
SK-BR-3 and MCF-7 cells (HER2 positive and negative respectively) were seeded and incubated with a solution of NB—Pd for 1 h. Cells were then washed with PBS and fresh media containing either DMSO or ProPTX (0.3 μM) was added. After 5 days, Presto blue cell viability reagent was added and fluorescence emission was detected. […] Results are to be found in FIG. 6.

| Molecule | catalytic conversion of ProPTX into paclitaxel in cell culture (SK-BR-3 cells [2]) | catalytic activity (conversion of ProRes into fluorescent resorufin) [5] | cell death (SK-BR-3 cells [2]) [%] | also measured |
| --- | --- | --- | --- | --- |
| CC(=O)O[C@H]1C(=O)[C@@]2(C)[C@H]([C@H](OC(=O)c3ccccc3)[C@]3(O)C[C@H](OC(=O)[C@H](O)[C@@H](NC(=O)c4ccccc4)c4ccccc4)C(C)=C1C3(C)C)[C@]1(OC(C)=O)CO[C@@H]1C[C@@H]2O [PTX, paclitaxel] | – | – | – | EC50 [1]: 0.0018 µM |
| C1=C\CC/C=C\CC/1.[Cl][Pd][Cl] [Pd(Cod)Cl2, reference compound] | poor catalytic efficiency | – | – | – |
| CC(=O)[O-].CC(=O)[O-].[Pd+2] [Pd(OAc)2, reference compound] | Non-significant catalysis | – | – | catalytic activity in serum ([3]; 10% FBS-PBS): lost its catalytic properties; EC50 (SK-BR-3 cells [4]): 23 µM; EC50 (SK-BR-3 cells [4]; listed as Pd): 39 µM |
| HRGDHC-OH [Pd-peptide] | converting the prodrug | show catalytic activity | > 40 | catalytic activity in serum relative to catalytic activity in PBS ([3]; 10% FBS-PBS vs PBS): at least 18% |
| LLEYLKR (also: Pd complex) [reference compound] | – | does not show any catalytic activity | – | – |
| B1 | – | – | > 70 | effect on cell viability [6]: no effect |
